Data as given in article PMC6269562, “Design, Synthesis and Biological Evaluation of New Imidazo[2,1-b]Thiazole Derivatives as Selective COX-2 Inhibitors” (Iranian Journal of Pharmaceutical Research : IJPR, 2018).
Where two headings read alike, the source gives them in different places.

Experiments:
[1] = system: COX-2; conditions: cited from earlier work
[2] = system: COX-1; conditions: read-out: IC50 Whole cell COX-1; cited from earlier work
[3] = system: COX-2; conditions: read-out: COX-2 IC50; cited from earlier work
[4] = molecular target: T1, ovine COX-2 (Ovis aries, UniProt P79208); assay: biochemical; conditions: for IC50: ovine COX-1/COX-2 assay kit, means of two determinations; for Selectivity index (SI): COX-1 IC50/COX-2 IC50
T1 construct: purchased Cayman chemical, MI, USA
T1 sequence (P79208 17-603): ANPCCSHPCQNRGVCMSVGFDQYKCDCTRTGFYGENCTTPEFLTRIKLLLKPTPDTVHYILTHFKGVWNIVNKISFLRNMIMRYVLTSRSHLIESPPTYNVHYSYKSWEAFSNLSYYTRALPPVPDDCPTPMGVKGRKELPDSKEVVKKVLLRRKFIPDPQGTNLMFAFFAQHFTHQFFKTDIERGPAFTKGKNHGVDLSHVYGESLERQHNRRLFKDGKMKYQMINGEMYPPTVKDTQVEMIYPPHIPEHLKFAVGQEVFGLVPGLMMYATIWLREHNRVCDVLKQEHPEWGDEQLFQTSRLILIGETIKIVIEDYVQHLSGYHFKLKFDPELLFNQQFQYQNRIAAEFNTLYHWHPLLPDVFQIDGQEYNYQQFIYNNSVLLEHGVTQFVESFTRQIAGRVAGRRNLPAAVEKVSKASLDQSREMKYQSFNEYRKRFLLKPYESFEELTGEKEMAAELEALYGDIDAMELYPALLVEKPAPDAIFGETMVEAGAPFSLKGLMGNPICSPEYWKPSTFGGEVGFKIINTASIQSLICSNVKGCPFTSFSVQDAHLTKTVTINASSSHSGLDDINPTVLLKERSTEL
Text: (§1) In-vitro cyclooxygenase (COX) inhibition assay
(§2) Enzyme chemiluminescent kit (Cayman chemical, MI, USA) was used to evaluate inhibition activities of synthesized compounds based on our previous reported procedure ([34]). The Cayman chemical chemiluminescent COX (ovine) inhibitor screening assay employs the heme-catalyzed hydroperoxidase activity of ovine cyclooxygenases to produce luminescence in the presence of a cyclic naphthalene hydrazide and the substrate arachidonic acid.

[5] = molecular target: T2, ovine COX-1 (Ovis aries, UniProt P05979); assay: biochemical; conditions: ovine COX-1/COX-2 assay kit, means of two determinations
T2 construct: purchased Cayman chemical, MI, USA
T2 sequence (P05979 25-600): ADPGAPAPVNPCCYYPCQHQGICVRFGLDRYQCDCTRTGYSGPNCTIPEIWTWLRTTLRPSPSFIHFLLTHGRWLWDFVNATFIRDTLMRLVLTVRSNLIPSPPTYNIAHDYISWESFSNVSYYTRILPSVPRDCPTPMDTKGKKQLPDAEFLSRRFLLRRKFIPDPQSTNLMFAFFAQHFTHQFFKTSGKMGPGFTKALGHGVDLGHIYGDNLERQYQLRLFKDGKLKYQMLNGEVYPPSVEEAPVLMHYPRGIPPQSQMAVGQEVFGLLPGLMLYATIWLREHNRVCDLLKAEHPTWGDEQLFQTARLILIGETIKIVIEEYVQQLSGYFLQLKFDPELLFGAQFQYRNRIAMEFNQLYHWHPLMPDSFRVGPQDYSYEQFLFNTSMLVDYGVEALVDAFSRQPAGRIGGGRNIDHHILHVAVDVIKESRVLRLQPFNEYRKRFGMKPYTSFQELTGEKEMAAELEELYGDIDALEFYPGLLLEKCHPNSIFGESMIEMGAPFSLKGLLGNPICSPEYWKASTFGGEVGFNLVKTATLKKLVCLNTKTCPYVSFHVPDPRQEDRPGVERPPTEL
Text: as §1, §2

SMILES	melting point [°C]	IC50 [4] [nM]	IC50 [5] [nM]	Selectivity index (SI) [4]	also measured
CS(=O)(=O)c1ccc(-c2nc3ccccn3c2CN2CCOCC2)cc1 [2-(4-(methylsulfonyl)phenyl)-3-(morpholinomethyl)H-imidazo[1,2-a]pyridine]					SI ([1]; COX-2 selectivity index): 217.1; IC50 ([1]; read-out: IC50 (COX-2 inhibition)): 70 nM
Cc1cnc2c(-c3ccc(F)cc3)c(-c3ccc(S(C)(=O)=O)cc3)nn2c1C [3-(4-fluorophenyl)-6,7-dimethyl-2-(4-(methylsulfonyl)phenyl)pyrazolo[1,5-a]pyrimidine]					IC50 [2]: > 10000 nM
COc1ccc2[nH]c(-c3ccc(S(C)(=O)=O)cc3)cc2c1 [5-methoxy-2-(4-(methylsulfonyl)phenyl)-1H-indole]					IC50 [3]: 80 nM
CN(C)Cc1c(-c2ccc(S(C)(=O)=O)cc2)nc2sccn12 [Compound 6a, N,N-Dimethyl-1-(6-(4-(methylsulfonyl)phenyl)imidazo[2,1-b]thiazol-5-yl)methanamine]	123 to 124	80	> 100000		
CCN(CC)Cc1c(-c2ccc(S(C)(=O)=O)cc2)nc2sccn12 [Compound 6b, N-Ethyl-N-((6-(4-(methylsulfonyl)phenyl)imidazo[2,1-b]thiazol-5-yl)methyl)ethanamine]	132 to 135	120	48500	404.1	
CCCN(CCC)Cc1c(-c2ccc(S(C)(=O)=O)cc2)nc2sccn12 [Compound 6c, N-((6-(4-(Methylsulfonyl)phenyl)imidazo[2,1-b]thiazol-5-yl)methyl)-N-propylpropan-1-amine]	165 to 167				
CS(=O)(=O)c1ccc(-c2nc3sccn3c2CN2CCCC2)cc1 [Compound 6d, 6-(4-(Methylsulfonyl)phenyl)-5-(pyrrolidin-1-ylmethyl)imidazo[2,1-b]thiazole]	144 to 146	90	12100	134.4	
CS(=O)(=O)c1ccc(-c2nc3sccn3c2CN2CCCCC2)cc1 [Compound 6e, 6-(4-(Methylsulfonyl)phenyl)-5-(piperidin-1-ylmethyl)imidazo[2,1-b]thiazole]	142.6 to 144	160	50100	313.1	
CS(=O)(=O)c1ccc(-c2nc3sccn3c2CN2CCOCC2)cc1 [Compound 6f, 4-((6-(4-(Methylsulfonyl)phenyl)imidazo[2,1-b]thiazol-5-yl)methyl)morpholine]	203 to 206	100	55100	551.0	
CS(=O)(=O)c1ccc(-c2nc3sccn3c2CN(CCO)CCO)cc1 [Compound 6g, 2,2′-(((6-(4-(Methylsulfonyl)phenyl)imidazo[2,1-b]thiazol-5-yl)methyl)azanediyl)bis(ethan-1-ol)]	168.8 to 170	110	> 100000		
